In this assay the target is T1, F508del (Homo sapiens, UniProt P13569, DEL508-508).
T1 construct: expressed in transfected cells
The experiment in a line: Membrane potential optical assay (FRET voltage-sensor dyes), identification of correction compounds. As to conditions: NIH3T3 cells stably expressing F508del, procedures described above; for Emax: maximum efficacy, read-out: Max Efficacy; for pEC50: modulation of CFTR activity. It is filed as cell-based. The method, boiled down: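 NIH3T3 mouse fibroblasts stably expressing F508del incubated 16 hrs at 37° C. in serum-free medium with or without compound. After dye loading (CC2-DMPE/DiSBAC2(3)), 10 μM forskolin plus 20 μM genistein added in Cl⁻-free medium; depolarization from Cl⁻ efflux read by FRET on VIPR II.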

The pEC50 is the EC50 on a negative log10 scale, so that one unit is a factor of ten.

pEC50: −log10 of the molar value.

T1 sequence (P13569 with tags, fused parts or gaps DEL508-508): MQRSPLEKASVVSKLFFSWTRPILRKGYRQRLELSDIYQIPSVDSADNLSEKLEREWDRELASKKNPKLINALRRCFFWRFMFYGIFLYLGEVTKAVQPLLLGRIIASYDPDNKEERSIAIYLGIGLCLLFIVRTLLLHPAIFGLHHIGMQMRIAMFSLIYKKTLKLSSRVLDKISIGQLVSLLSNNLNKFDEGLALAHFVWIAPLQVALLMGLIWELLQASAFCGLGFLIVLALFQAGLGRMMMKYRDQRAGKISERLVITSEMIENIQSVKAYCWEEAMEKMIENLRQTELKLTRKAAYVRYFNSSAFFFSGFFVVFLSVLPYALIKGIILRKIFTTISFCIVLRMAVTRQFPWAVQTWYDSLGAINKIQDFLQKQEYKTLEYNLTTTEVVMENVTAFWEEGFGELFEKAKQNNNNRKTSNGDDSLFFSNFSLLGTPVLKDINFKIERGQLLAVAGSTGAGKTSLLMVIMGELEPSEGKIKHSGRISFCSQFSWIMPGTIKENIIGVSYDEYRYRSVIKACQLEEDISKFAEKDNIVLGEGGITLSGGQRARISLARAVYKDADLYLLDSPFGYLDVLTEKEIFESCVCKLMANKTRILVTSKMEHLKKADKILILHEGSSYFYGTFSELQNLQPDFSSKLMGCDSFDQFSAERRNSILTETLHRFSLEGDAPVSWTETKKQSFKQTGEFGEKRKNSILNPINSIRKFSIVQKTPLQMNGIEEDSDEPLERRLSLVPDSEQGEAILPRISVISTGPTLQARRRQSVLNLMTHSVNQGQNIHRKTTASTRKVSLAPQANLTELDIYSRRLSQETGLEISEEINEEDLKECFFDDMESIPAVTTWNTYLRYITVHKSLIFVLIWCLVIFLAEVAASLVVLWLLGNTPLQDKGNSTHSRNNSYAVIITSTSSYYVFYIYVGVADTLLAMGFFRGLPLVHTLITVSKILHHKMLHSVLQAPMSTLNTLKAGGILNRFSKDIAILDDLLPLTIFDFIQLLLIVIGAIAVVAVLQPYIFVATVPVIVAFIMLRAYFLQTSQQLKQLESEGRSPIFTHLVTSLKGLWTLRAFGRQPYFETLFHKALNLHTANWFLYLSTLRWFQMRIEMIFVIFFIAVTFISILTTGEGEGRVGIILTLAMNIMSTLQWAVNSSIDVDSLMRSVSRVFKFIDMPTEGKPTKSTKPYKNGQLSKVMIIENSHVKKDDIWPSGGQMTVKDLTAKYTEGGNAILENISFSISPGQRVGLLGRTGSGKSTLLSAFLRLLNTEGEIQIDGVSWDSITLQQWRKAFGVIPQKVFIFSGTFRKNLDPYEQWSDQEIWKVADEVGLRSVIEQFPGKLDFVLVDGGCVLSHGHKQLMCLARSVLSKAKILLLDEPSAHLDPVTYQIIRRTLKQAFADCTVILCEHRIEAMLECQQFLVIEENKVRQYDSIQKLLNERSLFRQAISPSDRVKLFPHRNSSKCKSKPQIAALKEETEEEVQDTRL

`CC(C)COc1cc(F)cc(-c2ccc(C(=O)NS(=O)(=O)c3cccc(N)n3)c(N(C)CC(C)(C)C)n2)c1` [Compound 52, N-[(6-amino-2-pyridyl)sulfonyl]-2-[2,2-dimethylpropyl(methyl)amino]-6-(3-fluoro-5-isobutoxy-phenyl)pyridine-3-carboxamide]: the Emax is above 80% and the negative-log EC50 (pEC50) is above 5.52.

For `CCN(CC)c1nc(-c2cc(F)cc(OCC(C)C)c2)ccc1C(=O)NS(=O)(=O)c1cccc(N)n1` [Compound 53, N-[(6-amino-2-pyridyl)sulfonyl]-2-(diethylamino)-6-(3-fluoro-5-isobutoxy-phenyl)pyridine-3-carboxamide], the Emax was above 80% and the negative-log EC50 (pEC50) is above 5.52.

For `CC(C)COc1cc(F)cc(-c2ccc(C(=O)NS(=O)(=O)c3cccc(N)n3)c(NC(C)C(C)C)n2)c1` (stereo not shown) [Compound 54, N-[(6-amino-2-pyridyl)sulfonyl]-2-(1,2-dimethylpropylamino)-6-(3-fluoro-5-isobutoxy-phenyl)pyridine-3-carboxamide], the Emax lay within 30 to 80% and the pEC50 is 5.00 to 5.52.

Regarding `CC(C)COc1cc(F)cc(-c2ccc(C(=O)NS(=O)(=O)c3cccc(N)n3)c(OCCOC(C)C)n2)c1` [Compound 55, N-[(6-amino-2-pyridyl)sulfonyl]-6-(3-fluoro-5-isobutoxy-phenyl)-2-(2-isopropoxyethoxy)pyridine-3-carboxamide], the Emax fell in the range of 30 to 80% and the pEC50 is above 5.52.

With `CCCC(C)Oc1nc(-c2cc(F)cc(OCC(C)C)c2)ccc1C(=O)NS(=O)(=O)c1cccc(N)n1` (stereo not shown) [Compound 56, N-[(6-amino-2-pyridyl)sulfonyl]-6-(3-fluoro-5-isobutoxy-phenyl)-2-(1-methylbutoxy)pyridine-3-carboxamide], the Emax is above 80% and the pEC50 was above 5.52.

Turning to `CC(C)COc1cc(F)cc(-c2ccc(C(=O)NS(=O)(=O)c3cccc(N)n3)c(OCC(C)(F)F)n2)c1` [Compound 57, N-[(6-amino-2-pyridyl)sulfonyl]-2-(2,2-difluoropropoxy)-6-(3-fluoro-5-isobutoxy-phenyl)pyridine-3-carboxamide], the Emax is 30 to 80% and the pEC50 was above 5.52.

Regarding `CC(C)COc1cc(F)cc(-c2ccc(C(=O)NS(=O)(=O)c3cccc(N)n3)c(NC(C)(C)C)n2)c1` [Compound 58, N-[(6-amino-2-pyridyl)sulfonyl]-2-(tert-butylamino)-6-(3-fluoro-5-isobutoxy-phenyl)pyridine-3-carboxamide], the Emax is above 80% and the pEC50 is above 5.52.

Take `CC[C@@H](C)Oc1nc(-c2cc(F)cc(OCC(C)C)c2)ccc1C(=O)NS(=O)(=O)c1cccc(N)n1` [Compound 59, N-[(6-amino-2-pyridyl)sulfonyl]-6-(3-fluoro-5-isobutoxy-phenyl)-2-[(1R)-1-methylpropoxy]pyridine-3-carboxamide]: the Emax was in the range of 30 to 80% and the negative-log EC50 (pEC50) is above 5.52.

In the case of `COCCOc1nc(-c2cc(F)cc(OCC(C)C)c2)ccc1C(=O)NS(=O)(=O)c1cccc(N)n1` [Compound 60, N-[(6-amino-2-pyridyl)sulfonyl]-6-(3-fluoro-5-isobutoxy-phenyl)-2-(2-methoxyethoxy)pyridine-3-carboxamide], the Emax fell in the range of 30 to 80% and the negative-log EC50 (pEC50) is above 5.52.

With `CC(C)COc1cc(F)cc(-c2ccc(C(=O)NS(=O)(=O)c3cccc(N)n3)c(N(C)CC(C)C)n2)c1` [Compound 61, N-[(6-amino-2-pyridyl)sulfonyl]-6-(3-fluoro-5-isobutoxy-phenyl)-2-[isobutyl(methyl)amino]pyridine-3-carboxamide], the Emax was above 80% and the negative-log EC50 (pEC50) was above 5.52.

Regarding `CCCC(C)C(C)Oc1nc(-c2cc(F)cc(OCC(C)C)c2)ccc1C(=O)NS(=O)(=O)c1cccc(N)n1` (stereo not shown) [Compound 62, N-[(6-amino-2-pyridyl)sulfonyl]-2-(1,2-dimethylpentoxy)-6-(3-fluoro-5-isobutoxy-phenyl)pyridine-3-carboxamide], the Emax fell in the range of 30 to 80% and the pEC50 is above 5.52.

Values taken from US10738030B2, “Modulators of cystic fibrosis transmembrane conductance regulator” (Vertex Pharmaceuticals Incorporated, priority 2016, dated 2020).
